# In patent publication US9708314B2, “Heterocyclic amide compound” (NISSAN CHEMICAL INDUSTRIES, LTD., priority 2013, dated 2017):
# Experiments:
# [1] = system: Stellaria media; assay: Test Example 4: herbicidal effect by application to foliage (diluvial soil, plastic box); format: in vivo; settings: application to foliage, application herbicide amount 320 g/ha
# In short: (§1)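 Scores run from 0 (herbicidal ratio ≤5%) to 5 (≥90%, almost fully withered) and were assessed three weeks after foliar spraying. Seedlings had been raised for 14 days at 25-30° C in sterilized diluvial soil before treatment, with the emulsion diluted in water to the stated g/ha dose.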
# [2] = system: Amaranthus retroflexus; assay: as above; format: in vivo; settings: application to foliage, application herbicide amount 320 g/ha
# In short: as §1
# [3] = system: transplanted Oryza sativa; assay: Test Example 1: effect on crop, application before weed generation in submerged conditions; format: in vivo; settings: Application herbicide amount 320 g/ha; Seventeenth Table
# In short: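 Alluvial soil in Wagner pots flooded to 4 cm water depth; weed seeds sown and 2.5 leaf stage rice seedlings transplanted. Emulsion diluted in water applied to water surface on sowing day at stated g/ha. Greenhouse 25° C. to 30° C.; effects scored 0–5 by herbicidal ratio after three weeks.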
smiles,measurement,setting,value
"CSc1nnc2c(C(=O)Nc3nnc(C)o3)ccc(C(F)(F)F)n12 [1-018, N-(5-Methyl-1,3,4-oxadiazol-2-yl)-3-(methylthio)-5-(trifluoromethyl)-[1,2,4]triazol o[4,3-a]pyridine-8-carboxamide]",P (Stellaria media) herbicidal effect,[1],4 (Herbicidal ratio of 70% or more and less than 90%)
same,N (Amaranthus retroflexus) herbicidal effect,[2],4 (Herbicidal ratio of 70% or more and less than 90%)
same,a: transplanted Oryza sativa (effect on crop grade),[3],0 (Herbicidal ratio of 5% or less (almost no effect))
same,melting point,,230 to 233 °C
